The values that follow are results of earlier work, collected in patent US20240327339A1, “COMPOSITIONS AND METHODS FOR TREATING AND PREVENTING VIRAL INFECTIONS” (priority 2021, published 2024).

The test system of the data set is RSV. Particulars: cited from earlier work.

In the case of `NC(=O)c1ncn([C@@H]2O[C@H](CO)[C@@H](O)[C@H]2O)n1` [Ribavirin], the therapeutic results (inhaled) is given as “mixed-to-poor results”.

With “palivizumab: a humanized monoclonal antibody targeting the F protein”, where the note is “treated high-risk infants, monthly administration”, the reduction of hospitalizations result is “approximately 50%”.
